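Each compound was tested at five concentrations against cells in 96-well plates for 48 hours. Here, GI50 denotes the concentration required for 50% inhibition of growth. TGI: total growth inhibition.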
Tests used:
Test in all cases: DTP human tumour cell line panel, 48 h
786-0 renal = tested on: 786-0 renal
A498 renal = tested on: A498 renal
A549 NSCLC = tested on: A549 NSCLC
ACHN renal = tested on: ACHN renal
CAKI-1 renal = tested on: CAKI-1 renal
CCRF-CEM leukemia = tested on: CCRF-CEM leukemia
COLO 205 colon = tested on: COLO 205 colon
DU-145 prostate = tested on: DU-145 prostate
EKVX NSCLC = tested on: EKVX NSCLC
HCC-2998 colon = tested on: HCC-2998 colon
HCT-116 colon = tested on: HCT-116 colon
HCT-15 colon = tested on: HCT-15 colon
HL-60(TB) leukemia = tested on: HL-60(TB) leukemia
HOP-62 NSCLC = tested on: HOP-62 NSCLC
HS 578T breast = tested on: HS 578T breast
HT29 colon = tested on: HT29 colon
IGROV1 ovarian = tested on: IGROV1 ovarian
K-562 leukemia = tested on: K-562 leukemia
KM12 colon = tested on: KM12 colon
LOX IMVI melanoma = tested on: LOX IMVI melanoma
M14 melanoma = tested on: M14 melanoma
MALME-3M melanoma = tested on: MALME-3M melanoma
MCF7 breast = tested on: MCF7 breast
MDA-MB-231 breast = tested on: MDA-MB-231 breast
MDA-MB-435 = tested on: MDA-MB-435
MOLT-4 leukemia = tested on: MOLT-4 leukemia
NCI-H226 lung = tested on: NCI-H226 lung
NCI-H23 lung = tested on: NCI-H23 lung
NCI-H460 lung = tested on: NCI-H460 lung
NCI-H522 lung = tested on: NCI-H522 lung
NCI/ADR-RES ovarian = tested on: NCI/ADR-RES ovarian
OVCAR-3 ovarian = tested on: OVCAR-3 ovarian
OVCAR-4 ovarian = tested on: OVCAR-4 ovarian
OVCAR-5 ovarian = tested on: OVCAR-5 ovarian
OVCAR-8 ovarian = tested on: OVCAR-8 ovarian
PC-3 prostate = tested on: PC-3 prostate
RPMI-8226 leukemia = tested on: RPMI-8226 leukemia
RXF 393 renal = tested on: RXF 393 renal
SF-268 CNS = tested on: SF-268 CNS
SF-295 CNS = tested on: SF-295 CNS
SF-539 CNS = tested on: SF-539 CNS
SK-MEL-2 melanoma = tested on: SK-MEL-2 melanoma
SK-MEL-28 melanoma = tested on: SK-MEL-28 melanoma
SK-MEL-5 melanoma = tested on: SK-MEL-5 melanoma
SN12C renal = tested on: SN12C renal
SNB-19 CNS = tested on: SNB-19 CNS
SNB-75 CNS = tested on: SNB-75 CNS
SR leukemia = tested on: SR leukemia
SW-620 colon = tested on: SW-620 colon
T-47D breast = tested on: T-47D breast
TK-10 renal = tested on: TK-10 renal
U251 CNS = tested on: U251 CNS
UACC-257 melanoma = tested on: UACC-257 melanoma
UACC-62 melanoma = tested on: UACC-62 melanoma
UO-31 renal = tested on: UO-31 renal
HOP-92 NSCLC = tested on: HOP-92 NSCLC
BT-549 breast = tested on: BT-549 breast
SK-OV-3 ovarian = tested on: SK-OV-3 ovarian

Work on `CSS(C)(=O)=O` yielded a TGI (786-0 renal) of over 100 µM, a TGI (A498 renal) of over 100 µM and a TGI (A549 NSCLC) of over 100 µM. It also gave a TGI (ACHN renal) of 56.9 µM, a TGI (CAKI-1 renal) of 43.2 µM and a TGI (CCRF-CEM leukemia) of over 100 µM. The TGI (COLO 205 colon) was 40.1 µM, the TGI (DU-145 prostate) was 45.9 µM and the TGI (EKVX NSCLC) was 66.2 µM. It also gave a TGI (HCC-2998 colon) of 71.2 µM, a TGI (HCT-116 colon) of over 100 µM and a TGI (HCT-15 colon) of 58.8 µM. The TGI (HL-60(TB) leukemia) was 58.7 µM, the TGI (HOP-62 NSCLC) was over 100 µM and the TGI (HS 578T breast) was over 100 µM. The TGI (HT29 colon) was over 100 µM, the TGI (IGROV1 ovarian) was 45.2 µM and the TGI (K-562 leukemia) was 78.6 µM. It also gave a TGI (KM12 colon) of 87.1 µM, a TGI (LOX IMVI melanoma) of over 100 µM and a TGI (M14 melanoma) of 74.7 µM. It also gave a TGI (MALME-3M melanoma) of 48.4 µM, a TGI (MCF7 breast) of over 100 µM and a TGI (MDA-MB-231 breast) of over 100 µM. The TGI (MDA-MB-435) was 44.3 µM, the TGI (MOLT-4 leukemia) was 10.1 µM and the TGI (NCI-H226 lung) was 43.5 µM. The TGI (NCI-H23 lung) was 50.5 µM, the TGI (NCI-H460 lung) was over 100 µM and the TGI (NCI-H522 lung) was 37.1 µM. It also gave a TGI (NCI/ADR-RES ovarian) of over 100 µM, a TGI (OVCAR-3 ovarian) of 41.6 µM and a TGI (OVCAR-4 ovarian) of 64.3 µM. For the same compound, the TGI (OVCAR-5 ovarian) was 49.1 µM, the TGI (OVCAR-8 ovarian) was 68.8 µM and the TGI (PC-3 prostate) was 48.7 µM. For the same compound, the TGI (RPMI-8226 leukemia) was 5.36 µM, the TGI (RXF 393 renal) was 59.6 µM and the TGI (SF-268 CNS) was 96.9 µM. The TGI (SF-295 CNS) was 54.5 µM, the TGI (SF-539 CNS) was 37 µM and the TGI (SK-MEL-2 melanoma) was 60.2 µM. For the same compound, the TGI (SK-MEL-28 melanoma) was 48 µM, the TGI (SK-MEL-5 melanoma) was over 100 µM and the TGI (SN12C renal) was 45.3 µM. For the same compound, the TGI (SNB-19 CNS) was over 100 µM, the TGI (SNB-75 CNS) was 94.1 µM and the TGI (SR leukemia) was 38.6 µM. It also gave a TGI (SW-620 colon) of over 100 µM, a TGI (T-47D breast) of 57.2 µM and a TGI (TK-10 renal) of 46 µM. The TGI (U251 CNS) was over 100 µM, the TGI (UACC-257 melanoma) was 45.8 µM and the TGI (UACC-62 melanoma) was 42.3 µM. For the same compound, the TGI (UO-31 renal) was 52.1 µM.
`O=[N+]([O-])c1ccc(C2CC3(c4ccccc4)ON=C(c4ccccc4)N3c3ccccc3S2)cc1` (centres undefined) was tested, and the GI50 (HCT-116 colon) was 19.7 µM, the GI50 (HOP-62 NSCLC) was 58.9 µM and the GI50 (HOP-92 NSCLC) was 78.2 µM. It also gave a GI50 (K-562 leukemia) of 83.6 µM, a GI50 (OVCAR-4 ovarian) of 76.1 µM and a GI50 (SF-295 CNS) of 80.8 µM. For the same compound, the GI50 (SF-539 CNS) was 68.9 µM, the GI50 (SK-MEL-2 melanoma) was 40.3 µM and the GI50 (SNB-75 CNS) was 37.4 µM. For the same compound, the GI50 (TK-10 renal) was 0.0149 µM and the TGI (TK-10 renal) was 7.95 µM.
With `Cc1nc2ccccc2c(/C=C/c2ccccc2)c1C(=O)/C=C/c1ccccc1` the GI50 (786-0 renal) was 1.61 µM, the TGI (786-0 renal) was 3.02 µM and the GI50 (A498 renal) was 1.83 µM. For the same compound, the TGI (A498 renal) was 3.46 µM, the GI50 (A549 NSCLC) was 2.29 µM and the TGI (A549 NSCLC) was 6.06 µM. The GI50 (ACHN renal) was 1.86 µM, the TGI (ACHN renal) was 3.62 µM and the GI50 (BT-549 breast) was 1.73 µM. It also gave a TGI (BT-549 breast) of 3.67 µM, a GI50 (CCRF-CEM leukemia) of 2.51 µM and a TGI (CCRF-CEM leukemia) of over 100 µM. The GI50 (COLO 205 colon) was 1.82 µM, the TGI (COLO 205 colon) was 4.44 µM and the GI50 (EKVX NSCLC) was 1.75 µM. For the same compound, the TGI (EKVX NSCLC) was 3.28 µM, the GI50 (HCC-2998 colon) was 1.86 µM and the TGI (HCC-2998 colon) was 3.53 µM. For the same compound, the GI50 (HCT-116 colon) was 1.11 µM, the TGI (HCT-116 colon) was 2.56 µM and the GI50 (HCT-15 colon) was 1.56 µM. For the same compound, the TGI (HCT-15 colon) was 4.4 µM, the GI50 (HL-60(TB) leukemia) was 2.45 µM and the TGI (HL-60(TB) leukemia) was 6.51 µM. For the same compound, the GI50 (HOP-62 NSCLC) was 1.9 µM, the TGI (HOP-62 NSCLC) was 4.1 µM and the GI50 (HT29 colon) was 2.61 µM. It also gave a TGI (HT29 colon) of 12 µM, a GI50 (IGROV1 ovarian) of 1.84 µM and a TGI (IGROV1 ovarian) of 6.18 µM. It also gave a GI50 (K-562 leukemia) of 2.84 µM, a TGI (K-562 leukemia) of over 100 µM and a GI50 (KM12 colon) of 1.97 µM. It also gave a TGI (KM12 colon) of 4.7 µM, a GI50 (LOX IMVI melanoma) of 1.77 µM and a TGI (LOX IMVI melanoma) of 3.19 µM. For the same compound, the GI50 (MALME-3M melanoma) was 1.76 µM, the TGI (MALME-3M melanoma) was 3.24 µM and the GI50 (MDA-MB-231 breast) was 2.3 µM. It also gave a TGI (MDA-MB-231 breast) of 7.37 µM, a GI50 (MDA-MB-435) of 2.36 µM and a TGI (MDA-MB-435) of 6.71 µM. It also gave a GI50 (NCI-H226 lung) of 2.16 µM, a TGI (NCI-H226 lung) of 5.27 µM and a GI50 (NCI-H460 lung) of 1.88 µM. The TGI (NCI-H460 lung) was 4.88 µM, the GI50 (NCI/ADR-RES ovarian) was 2.71 µM and the TGI (NCI/ADR-RES ovarian) was 8.35 µM. The GI50 (OVCAR-5 ovarian) was 1.93 µM, the TGI (OVCAR-5 ovarian) was 3.52 µM and the GI50 (OVCAR-8 ovarian) was 2.11 µM. It also gave a TGI (OVCAR-8 ovarian) of 5.67 µM, a GI50 (RXF 393 renal) of 1.78 µM and a TGI (RXF 393 renal) of 3.22 µM. For the same compound, the GI50 (SF-268 CNS) was 2.14 µM, the TGI (SF-268 CNS) was 6.24 µM and the GI50 (SF-295 CNS) was 2.8 µM. For the same compound, the TGI (SF-295 CNS) was 8.36 µM, the GI50 (SF-539 CNS) was 1.76 µM and the TGI (SF-539 CNS) was 3.19 µM. It also gave a GI50 (SK-MEL-2 melanoma) of 1.92 µM, a TGI (SK-MEL-2 melanoma) of 4.08 µM and a GI50 (SK-MEL-28 melanoma) of 1.83 µM. It also gave a TGI (SK-MEL-28 melanoma) of 3.3 µM, a GI50 (SK-MEL-5 melanoma) of 1.77 µM and a TGI (SK-MEL-5 melanoma) of 3.17 µM. The GI50 (SK-OV-3 ovarian) was 3.92 µM, the TGI (SK-OV-3 ovarian) was over 100 µM and the GI50 (SN12C renal) was 1.9 µM. The TGI (SN12C renal) was 4.07 µM, the GI50 (SNB-19 CNS) was 1.6 µM and the TGI (SNB-19 CNS) was 2.96 µM. For the same compound, the GI50 (SR leukemia) was 1.78 µM, the TGI (SR leukemia) was over 100 µM and the GI50 (TK-10 renal) was 2.58 µM. The TGI (TK-10 renal) was 6.81 µM, the GI50 (U251 CNS) was 1.57 µM and the TGI (U251 CNS) was 2.93 µM. It also gave a GI50 (UACC-62 melanoma) of 1.77 µM, a TGI (UACC-62 melanoma) of 3.23 µM and a GI50 (UO-31 renal) of 1.33 µM. For the same compound, the TGI (UO-31 renal) was 2.61 µM.
With `C[C@]12CCc3sc(Nc4ccc(F)cc4F)nc3C1=CC[C@@H]1[C@@H]2CC[C@]2(C)C(=O)CC[C@@H]12` the GI50 (K-562 leukemia) was 2.43 µM, the TGI (K-562 leukemia) was over 100 µM and the GI50 (MOLT-4 leukemia) was 2.44 µM. For the same compound, the TGI (MOLT-4 leukemia) was over 100 µM, the GI50 (OVCAR-8 ovarian) was 2.96 µM and the TGI (OVCAR-8 ovarian) was over 100 µM.

— PubChem BioAssay (NCI)
